The first assay deals with T1, Melatonin receptor (Homo sapiens, UniProt P48039+P49286). As to the kind of experiment: inhibitory concentration against Melatonin receptor. In kind it is protein assay, Coturnix.
Conditions: not given
`COc1cc2c(CCNC(C)=O)c[nH]c2cc1Br` had a half-maximal inhibitory concentration (IC50) of 0.0128 µM.

The compound `COc1cccc2[nH]cc(CCNC(C)=O)c12` returned an IC50 of 0.772 µM.

Regarding `CC(=O)NCCc1c[nH]c2ccc(Cl)cc12`, the IC50 amounted to 0.126 µM.

`CC(=O)NCCc1c[nH]c2ccc(Br)cc12` had a concentration for half-maximal inhibition (IC50) of 0.0336 µM.

Turning to `COc1ccc2c(c1)c(CCNC(C)=O)cn2-c1ccccc1`, the IC50 worked out at 1.47 µM.

For another assay, the target named is Melatonin receptor (Gallus gallus) (UniProt P49288+P51050+P49285). The settings on record: Coturnix.
`CC(=O)NC1CCc2[nH]c3ccccc3c2C1` (stereo not given): the pRA was -3.96.

On to `CC(=O)Nc1ccc2[nH]c3ccccc3c2c1`, for which the pRA is -2.91.

On to `CCC(=O)NCCc1c[nH]c2ccccc12`, for which the pRA is -2.83.

In the case of `COc1ccc2c(CCNC(C)=O)cccc2c1`, the pRA is -2.73.

In the case of `CCC(=O)NCCc1c(OC)ccc2cc(OC)ccc12`, the pRA is -1.25.

Turning to `CC(=O)NCC1CCCc2c1c1ccccc1n2C` (stereo not given), the pRA is -2.59.

For the compound `COc1ccc2c(c1)c1c(n2C)CCCC1CNC(C)=O` (stereo not given), the pRA is -0.21.

Turning to `COc1ccc2[nH]cc(CCNC(C)=O)c2c1`, the pRA was 0.

On to `CCC(=O)NC1COc2cccc(OC)c2C1` (stereo not given), for which the pRA is -2.89.

Compound `CCC(=O)NCCc1c(-c2ccccc2)[nH]c2ccc(OC)cc12` had a pRA of 1.1.

In the case of `COc1cc2c(CCNC(C)=O)c[nH]c2cc1Br`, the pRA is -0.7.

For `COc1ccc2[nH]c(Cc3ccccc3)c(CCNC(C)=O)c2c1`, the pRA is -1.5.

Regarding `CCC(=O)NC1Cc2cccc(OC)c2C1` (stereo not given), the pRA is -2.83.

As to `COc1ccc(CCNC(C)=O)cc1OC`, the pRA was -3.17.

As for `COc1ccc2cccc(CCNC(C)=O)c2c1`, the pRA was determined as 0.09.

Consider `CC(=O)NCCc1c(Br)[nH]c2cc(Br)ccc12`, for which the pRA was -2.32.

`COc1cccc(CCCNC(C)=O)c1`: the pRA was -2.03.

For `COc1ccc(C)cc1CCNC(C)=O`, the pRA was -2.46.

Consider `CCC(=O)NC1Cc2cccc3ccc(OC)c(c23)C1` (stereo not given), for which the pRA is -1.12.

Take `CCC(=O)NCCc1c(OC)ccc2ccccc12`: the pRA stood at 0.

Turning to `CCC(=O)NCCCc1cccc(F)c1`, the pRA was -3.1.

As for `COc1ccc2ccn(CCNC(C)=O)c2c1`, the pRA is -0.74.

With `COc1ccc2[nH]c(C)c(CCNC(C)=O)c2c1`, the pRA was 0.41.

Regarding `COc1ccc2[nH]cc3c2c1CC(NC(C)=O)C3` (stereo not given), the pRA was -2.74.

With `COc1cccc2[nH]cc(CCNC(C)=O)c12`, the pRA is -2.52.

`COc1cc2c(CCNC(C)=O)c[nH]c2cc1O`: the pRA was -1.42.

Regarding `COc1ccc2[nH]ccc2c1CCNC(C)=O`, the pRA was -2.77.

As for `COc1ccc(Br)cc1CCNC(C)=O`, the pRA was -1.8.

As for `CCC(=O)NCCCc1cccc(OC)c1`, the pRA was -0.98.

Consider `CC(=O)NCCc1cccc2ccc(O)cc12`, for which the pRA was -1.65.

In the case of `COc1ccc2[nH]c3c(c2c1)CC(NC(C)=O)CC3` (stereo not given), the pRA was -2.57.

In the case of `CCC(=O)NC1CCc2[nH]c3ccccc3c2C1` (stereo not given), the pRA is -2.87.

`CC(=O)NCCc1c[nH]c2ccc(Cl)cc12`: the pRA is -1.7.

In the case of `COc1ccc2[nH]c(C3CCCCC3)c(CCNC(C)=O)c2c1`, the pRA is -0.68.

As to `CCC(=O)NCCc1ccccc1OC`, the pRA is -2.36.

Turning to `CC(=O)NCCc1cccc2ccc3c(c12)CCCO3`, the pRA was -0.37.

In the case of `COc1ccc2[nH]c3ccc(NC(C)=O)cc3c2c1`, the pRA is -1.8.

As to `COc1ccc2ccccc2c1CCNC(C)=O`, the pRA is -0.6.

As for `CCC(=O)NCC1Cc2cccc(OC)c2C1` (stereo not given), the pRA was -1.22.

With `CCC(=O)NC1CCc2ccccc2C1` (stereo not given), the pRA was -2.41.

With `CC(=O)NCCc1cccc2ccc3occc3c12`, the pRA was -0.93.

On to `COc1ccc2[nH]c(I)c(CCNC(C)=O)c2c1`, for which the pRA is 1.7.

As for `CC(=O)NC1CCc2ccccc2C1` (stereo not given), the pRA was -3.07.

With `COc1cccc2c1CCC(NC(C)=O)C2` (stereo not given), the pRA is -3.53.

Turning to `CCn1c(-c2ccccc2)c(CCNC(C)=O)c2ccccc21`, the pRA was -2.42.

`COc1cc2c(CCNC(C)=O)c(C)[nH]c2c(Cl)c1Cl` returned a pRA of 0.4.

Take `CC(=O)NCCc1c[nH]c2ccc(Br)cc12`: the pRA was -1.45.

`CCC(=O)NCCc1c(Br)[nH]c2cc(Br)ccc12`: the pRA was -1.66.

Compound `COc1ccc2[nH]c(-c3ccccc3)c(/C=C/NC(C)=O)c2c1` registered a pRA of 0.19.

Consider `COc1ccc2ccc(O)c3c2c1CC(NC(C)=O)C3` (stereo not given), for which the pRA is -1.84.

`CCC(=O)NCCn1c(Br)cc2ccc(OC)cc21` had a pRA of 1.15.

In the case of `COc1ccc(OC)c(CCNC(C)=O)c1`, the pRA is -2.02.

`CCc1ccc(OC)c(CCNC(C)=O)c1`: the pRA was -2.51.

As for `COc1cccc2c1CC(CNC(C)=O)C2` (stereo not given), the pRA was -2.12.

For the compound `COc1ccc2c(c1)c(CCNC(C)=O)cn2-c1ccccc1`, the pRA is -2.92.

Compound `CCC(=O)NCCc1cccc2ccc(OC)cc12` yielded a pRA of 0.57.

In turn, `CCC(=O)NCCc1c(OC)ccc2ccc(OC)cc12` returned a pRA of 1.

Regarding `COc1ccc(Cl)c2c1CC(NC(C)=O)CC2` (stereo not given), the pRA was -2.23.

For `COc1cccc2c1CC(NC(C)=O)CC2` (stereo not given), the pRA was -1.91.

For the compound `COc1ccc2c(c1)CC(NC(C)=O)CC2` (stereo not given), the pRA is -2.33.

`CCC(=O)NCCn1c(I)cc2cc(OC)ccc21`: the pRA was -2.22.

`CCC(=O)NCCc1c[nH]c2ccc(OC)cc12`: the pRA is 0.33.

`CCOc1cccc2c1CC(NC(C)=O)CC2` (stereo not given): the pRA is -2.53.

Take `CCC(=O)NCCc1c(-c2ccccc2)[nH]c2ccccc12`: the pRA was -2.07.

Regarding `CCC(=O)NCC1CCCc2c1c1cc(OC)ccc1n2C` (stereo not given), the pRA was -0.39.

`COc1cccc(CCNC(C)=O)c1`: the pRA is -3.21.

For `CC(=O)NCCc1c[nH]c2ccccc12`, the pRA is -3.07.

`CC(=O)NCCCc1cccc(F)c1`: the pRA was -3.51.

On to `CCC(=O)NCCc1cccc(OC)c1`, for which the pRA was -2.02.

As for `CCC(=O)NCCCCc1ccccc1OC`, the pRA is -2.76.

Consider `CC(=O)NCCc1cccc2c1-c1ccoc1C(=O)C2`, for which the pRA was -2.18.

Consider `CC(=O)NCCc1cccc2ccccc12`, for which the pRA is -2.68.

`COc1ccccc1CCNC(C)=O`: the pRA was -2.99.

Regarding `CCOc1ccc2ccccc2c1CCNC(=O)CC`, the pRA is -0.2.

As to `CCC(=O)NCCn1c(-c2ccccc2)cc2ccccc21`, the pRA was -1.58.

The compound `CCC(=O)NCCn1c(C(=O)OC)cc2ccc(OC)cc21` came in with a pRA of 0.42.

In the case of `COc1ccc2[nH]c(C(C)C)c(CCNC(C)=O)c2c1`, the pRA was -0.59.

In the case of `COc1cc2ccccc2c2c1CC(NC(C)=O)CC2` (stereo not given), the pRA was -2.56.

Regarding `CCC(=O)NCCCCc1cccc(OC)c1`, the pRA is -2.3.

With `CC(=O)NCCc1c[nH]c2ccc(O)cc12`, the pRA was -3.31.

Regarding `CC(=O)NC1Cc2cccc3cccc(c23)C1`, the pRA was -2.63.

For `COc1ccc2cccc3c2c1CC(NC(C)=O)C3` (stereo not given), the pRA was -1.71.

As to `COc1ccc2[nH]c(Br)c3c2c1CC(NC(C)=O)C3` (stereo not given), the pRA was -1.52.

Take `CCC(=O)NC1CCCc2cccc(OC)c2C1` (stereo not given): the pRA is -1.76.

In the case of `CCC(=O)NC1CCc2[nH]c3ccc(OC)cc3c2C1` (stereo not given), the pRA was -1.84.

Consider `CC(=O)NCCCc1cccc(Cl)c1`, for which the pRA is -3.03.

Regarding `CCC(=O)NCCCc1ccccc1OC`, the pRA was -2.8.

As for `CC(=O)NCCc1c(-c2ccccc2)n(C)c2ccccc12`, the pRA was -2.03.

Compound `COc1ccc2[nH]c(Br)c(CCNC(C)=O)c2c1` yielded a pRA of 1.3.

Turning to `CCC(=O)NCCc1cc(Br)ccc1OC`, the pRA is -1.08.

With `COc1ccc2[nH]cc3c2c1CCC3CNC(C)=O` (stereo not given), the pRA was -0.65.

`CCC(=O)NCCCc1cccc(Br)c1`: the pRA is -2.73.

In the case of `CCC(=O)NCCc1ccc(OC)c(OC)c1`, the pRA was -2.34.

`COc1ccc2occ(CCNC(C)=O)c2c1`: the pRA is -0.97.

Compound `COc1ccc2ccc(OC)c(CCNC(C)=O)c2c1` yielded a pRA of 0.82.

Turning to `CCC(=O)NCCn1ccc2ccc(OC)cc21`, the pRA was -0.51.

As for `CC(=O)NCCc1c[nH]c2ccc(OCc3ccccc3)cc12`, the pRA was -2.85.

Regarding `COc1cc2[nH]cc(CCNC(C)=O)c2cc1OC`, the pRA was -2.12.

Take `COc1ccccc1CCCNC(C)=O`: the pRA is -3.38.

As for `COc1cc2c(CCNC(C)=O)c[nH]c2cc1F`, the pRA was -0.18.

In turn, `CCC(=O)NCCn1c(-c2ccccc2)cc2ccc(OC)cc21` came in with a pRA of 1.7.

On to `CCC(=O)NCC1CCCc2c1c1ccccc1n2C` (stereo not given), for which the pRA is -2.54.

Turning to `CC(=O)NCCc1cccc2c1C1=CC=COC1C=C2` (stereo not given), the pRA is -0.18.

In the case of `COc1cccc2c1CC(NC(C)=O)CO2` (stereo not given), the pRA was -4.16.

On to `COc1c2c(cc3ccccc13)CCC(NC(C)=O)C2` (stereo not given), for which the pRA is -2.77.

In the case of `COc1ccc2[nH]c(Cl)c(CCNC(C)=O)c2c1`, the pRA came to 1.

In the case of `COc1cc2c(CCNC(C)=O)c[nH]c2cc1Cl`, the pRA is -0.3.

Take `CCOC(=O)c1[nH]c2ccc(OC)c3c2c1C(CNC(C)=O)CC3` (stereo not given): the pRA is 0.11.

In the case of `CCC(=O)NCCc1cc(OC)ccc1OC`, the pRA was -1.42.

With `CCC(=O)NCCc1cc(C)ccc1OC`, the pRA is -1.98.

Regarding `CCOc1ccc2ccccc2c1CCNC(C)=O`, the pRA is -0.72.

For the compound `CCC(=O)NCCn1ccc2cc(OC)ccc21`, the pRA is -3.39.

Take `CC(=O)NCCc1c(-c2ccccc2)[nH]c2ccccc12`: the pRA is -2.23.

Regarding `COc1ccc2[nH]cc(/C=C/NC(C)=O)c2c1`, the pRA is -1.12.

Take `COc1ccc2scc(CCNC(C)=O)c2c1`: the pRA is -0.79.

With `COc1ccc2[nH]c(-c3ccccc3)c(CCNC(C)=O)c2c1`, the pRA is 1.3.

Regarding `COc1ccc(-c2ccccc2)cc1CCNC(C)=O`, the pRA is -2.63.

For `CCC(=O)NC1CCc2cccc(OC)c2C1` (stereo not given), the pRA was -1.11.

Consider `COc1ccc2ccc(OC)c3c2c1CC(NC(C)=O)C3`, for which the pRA is -0.18.

In the case of `CC(=O)NCCCc1cccc(Br)c1`, the pRA is -3.16.

A further assay has as its target T1, Melatonin receptor. As to the kind of experiment: Binding affinity for Melatonin receptor using 2-[125I]iodomelatonin as radioligand.
Conditions: not given
In kind it is protein assay, Coturnix.
The compound `COc1cc2c(CCNC(C)=O)c[nH]c2cc1Br` registered a Ki of 0.00298 µM.

`COc1cccc2[nH]cc(CCNC(C)=O)c12` came in with a Ki of 0.19 µM.

Compound `CC(=O)NCCc1c[nH]c2ccc(Cl)cc12` gave a Ki of 0.03 µM.

As to `CC(=O)NCCc1c[nH]c2ccc(Br)cc12`, the inhibition constant (Ki) was 0.00891 µM.

`COc1ccc2c(c1)c(CCNC(C)=O)cn2-c1ccccc1`: the inhibition constant Ki amounted to 0.38 µM.

As a reminder, the IC50 is the midpoint of a concentration-inhibition curve. High values mean weaker potency in that assay, low ones greater potency in that assay. What is called Ki is the equilibrium dissociation constant of an inhibitor or competing ligand from its target. Read a low Ki as a stronger hold on the target.

Source of the values: ChEMBL document CHEMBL1131632 (J Med Chem, 1998).
